Read-outs that look alike come from different tables or passages of the source.
Experiments:
[1] = target: hsMetAP-II (Homo sapiens, UniProt P50579); assay: MetAP inhibitory activity, Met-Gly-Met-Met substrate, HPLC detection of Gly-Met-Met; type: biochemical, hs
Procedure: (§1) The below protocol describes the measurement of the inhibitory activity of the compounds of the present invention by using E. coli MetAP, hsMetAP-I, and hsMetAP-II.
Inhibition activity of compounds was studied using the tetrapeptide substrate Met-Gly-Met-Met (Bachem) followed by HPLC analysis of the product Gly-Met-Met. The assay was performed in 96 well plates (Greiner) at a total reaction volume of 100 µl. […] Then the substrate Met-Gly-Met-Met was added to a final concentration of 400 µM. After an incubation period of 15 minutes (HsMetAP-I), 20 minutes (EcMetAP) or 60 minutes (HsMetAP-II) at 37 °C, the enzyme reaction was stopped by adding 10 µl 4 % trifluoroacetic acid. The plate was centrifuged at 1000 x g for 10 minutes.
(§2) Detection of the product Gly-Met-Met was performed by HPLC (Jasco), and typically using the following, or equivalent conditions: C18 column (Dr. Maisch, ReproSil-Pur® 120 ODS-3, 3 µm, 50 x 2 mm). 80 µl of sample were applied on the column and eluted with mobile phase A (water and 0.1 % trifluoroacetic acid, filtered, degassed) and B (acetonitrile and 0.1 % trifluoroacetic acid, degassed) over 8 minutes.
(§3) Percentage inhibition was calculated as the relation of Gly-Met-Met amount resulting in inhibited and uninhibited enzyme reaction (positive control). […] The values were determined in relation to positive controls with equal DMSO contents. The inhibition values for the varying concentrations of inhibitor were then fitted to a logarithmic dose-response curve and the IC50 values were calculated from the equation thus obtained.

[2] = target: E. coli MetAP (Escherichia coli, UniProt P0AE18); assay: as above; type: biochemical; conditions: for E. Coli % inhibition: single concentration: inhibitor 25 µM, enzyme 50 nM, 20 minutes substrate incubation at 37 °C; for inhibition at 25 µM: read-out: E. Coli % inhibition
Chain of E. coli MetAP (P0AE18 whole entry): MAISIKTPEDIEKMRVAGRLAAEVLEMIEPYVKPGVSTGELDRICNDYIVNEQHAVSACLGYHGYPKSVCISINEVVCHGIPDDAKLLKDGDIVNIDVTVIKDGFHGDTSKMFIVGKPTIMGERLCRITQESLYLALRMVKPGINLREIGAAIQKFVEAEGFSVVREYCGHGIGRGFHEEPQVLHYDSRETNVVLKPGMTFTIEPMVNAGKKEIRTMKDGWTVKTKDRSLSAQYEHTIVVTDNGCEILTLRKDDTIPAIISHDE
Procedure: as §1
(§4) Inhibition activity of compounds was studied using the tetrapeptide substrate Met-Gly-Met-Met (Bachem) followed by HPLC analysis of the product Gly-Met-Met. The assay was performed in 96 well plates (Greiner) at a total reaction volume of 100 µl. […] A positive control with DMSO solution instead of inhibitor at the corresponding concentration was prepared. Then the substrate Met-Gly-Met-Met was added to a final concentration of 400 µM. After an incubation period of 15 minutes (HsMetAP-I), 20 minutes (EcMetAP) or 60 minutes (HsMetAP-II) at 37 °C, the enzyme reaction was stopped by adding 10 µl 4 % trifluoroacetic acid. The plate was centrifuged at 1000 x g for 10 minutes.
as §2, §3

[3] = test system: human umbilical vein endothelial cells (HUVEC); assay: HUVEC growth arrest, crystal violet staining; type: cell-based
Description: For the measurement of the HUVEC growth arrest (Example 19) and the used materials and equipment were:
• Cells: Primary human umbilical vein cells (HUVEC) were obtained from GIBCO (Cat. C-015-5C). • Cell culture medium: Medium 200 supplemented with LSGS (Gibco, Cat. M-200-500). • Trypsin/EDTA (Gibco, Cat R-001-100) • Trypsin Neutralizer solution (Gibco, Cat R-002-100). • Crystal violet (Merck / Cat. no. 1408) • Ethanol (Riedel-de-Haen / Cat. no. 32205) • Acetic acid (Riedel-de-Haen / Cat. no. 33209) • Culture flasks: Coming, 430168 • 96 well plates: Greiner, 655 101
• Microtiter pipettes: •Brand Transferpette-8, • Gilson Pipetman 20 and 200 Laminar air flow cabinet: Gelman, Celaire • ELISA reader: Thermo, Multiskan Ascent • Microscope: Leitz Diavert • Balance: Sartorius RC 210 D • CO2 incubator: Heraeus CO2-Auto-Zero • Centrifuge: Heraeus Biofuge primo • Cell counter: Assistent, Neubauer hematocytometer
Crystal violet solution: • Crystal violet (Merck) was dissolved in ethanol (PA quality, Roth) to a concentration of 10 %. The solution was diluted with ddH2O 1:20.
Test compounds: • Compounds of the present invention were dissolved at a concentration of 10 mM in DMSO (Roth, Cat. 47201). Stock solutions of test compounds were diluted 1:10 not earlier than 1 hour before the assay was made.
• 1. HUVEC cells were seeded in 96-well plates ([…]). • 2. 6 hours later test compounds were added in triplicates Concentrations of test compound: 0, 1.6, 3.2, 6.3, 12.5, 25, 50, 100 µM. Fresh medium and test compounds were added every 48 hr. • 3. One 96 well plate (t=0) with untreated cells was fixed at the same time point as treatment of cells with test compounds was initiated. • 4. Test plates were incubated for 10 days in a CO2 incubator. • 5. Fixation of cells: Wells were washed with 100 µL/well PBS. PBS was decanted and 100 µL of 3 % formaldehyde/well was added. After 5 min, formaldehyde was decanted and plates were dried upside down on blotting paper overnight at room temperature. • 6. Staining: 0.1 mL of crystal violet solution was added to each well with a 12-channel pipette. After incubation for 5 min at room temperature, the crystal violet solution was decanted and plates were washed 5 x by submersion in 3 L fresh water. • 7. After drying (plates were dried on blotting paper upside down overnight) 0.1 mL of ethanol/acetic acid (99:1) was added to each well and the optical density at 595 nm was determined in an ELISA reader.
The evaluation of the growth inhibitory activity was carried out as follows: • Definitions: Growth: Mean OD at t=10 d - mean OD at t=0. • Evaluation: Dose response curves were established by plotting growth against concentration of compounds using Microsoft Excel.

[4] = target: hsMetAP-I (Homo sapiens, UniProt P53582); assay: MetAP inhibitory activity, Met-Gly-Met-Met substrate, HPLC detection of Gly-Met-Met; type: biochemical, hs; conditions: single concentration: inhibitor 25 µM, enzyme 50 nM, 15 minutes substrate incubation at 37 °C
Procedure: as §1, §4, §2, §3

[5] = background, Phase II clinical compound; cited from earlier work
[6] = enzyme 50 nM, 400 µM Met-Gly-Met-Met, 60 minutes at 37 °C, read-out: hsMetAP-II IC50
[7] = single concentration: inhibitor 25 µM, enzyme 50 nM, 60 minutes substrate incubation at 37 °C, read-out: hsMetAP-II % inhibition
[8] = Homo sapiens, HUVEC, 240 h, growth over 10 days, 0-100 µM, OD at 595 nm, read-out: HUVEC IC50
[9] = hsMetAP-II IC50, enzyme 50 nM, 400 µM Met-Gly-Met-Met, 60 minutes at 37 °C
[10] = read-out: hsMetAP-II % inhibition, single concentration: inhibitor 25 µM, enzyme 50 nM, 60 minutes substrate incubation at 37 °C
[11] = single concentration: inhibitor 25 µM, enzyme 50 nM, 60 minutes substrate incubation at 37 °C
[12] = growth over 10 days, 0-100 µM, OD at 595 nm, read-out: HUVEC IC50

Chain of hsMetAP-II (P50579 whole entry): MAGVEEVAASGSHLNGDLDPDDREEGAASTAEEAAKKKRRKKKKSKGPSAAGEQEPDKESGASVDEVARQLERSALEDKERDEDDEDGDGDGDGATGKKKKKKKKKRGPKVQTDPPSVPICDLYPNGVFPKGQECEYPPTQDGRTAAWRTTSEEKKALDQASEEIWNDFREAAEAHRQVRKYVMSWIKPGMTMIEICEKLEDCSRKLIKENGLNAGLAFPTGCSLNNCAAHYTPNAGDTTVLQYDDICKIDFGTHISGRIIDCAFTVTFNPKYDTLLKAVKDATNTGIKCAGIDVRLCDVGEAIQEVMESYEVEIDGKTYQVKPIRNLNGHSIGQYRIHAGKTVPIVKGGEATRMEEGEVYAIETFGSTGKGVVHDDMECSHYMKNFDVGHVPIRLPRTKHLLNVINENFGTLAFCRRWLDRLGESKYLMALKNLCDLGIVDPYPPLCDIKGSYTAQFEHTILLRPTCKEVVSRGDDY

Compound: COc1ccc(Cn2nnc3c2C2(CCC3=O)CO2)cc1 (stereo not shown) [HHS-I-028-B]
- inhibitory effect on MetAP-II (in words) [1]: good inhibitory effect
- IC50 [1, 6]: 980 ± 30 nM
- inhibition at 25 µM [1, 7]: 97 ± 0.3%
- E. Coli % inhibition [2]: Inactive
- IC50 [3, 8]: 8800 nM
- hsMetAP-I % inhibition [4]: Inactive

Compound: CC(C)NC(=O)O[C@@H]1CC[C@@]2(CO2)c2c1nnn2Cc1ccccc1 (racemic) [UWU-XII-128-C]
- IC50 [1, 9]: 18000 ± 9000 nM
- inhibition at 25 µM [1, 10]: 60 ± 5%
- inhibition at 25 µM [2]: 18 ± 2%
- IC50 [3, 8]: 9500 nM
- hsMetAP-I % inhibition [4]: Inactive

Compound: COc1ccc(Cn2nnc3c2C2(CCC3OC(=O)Nc3ccccc3)CO2)cc1 (racemic) [UWU-XIII-005-A]
- IC50 [1, 9]: 18000 ± 5000 nM
- hsMetAP-II % inhibition [1, 11]: 44 ± 6%
- E. Coli % inhibition [2]: Inactive
- IC50 [3, 12]: 14900 nM
- hsMetAP-I % inhibition [4]: Inactive

Compound: O=C1CCC2(CO2)c2c1nnn2CC1CCCCC1 (stereo not shown) [BK-I-177-A]
- IC50 [1, 6]: 17000 ± 6000 nM
- inhibition at 25 µM [1, 7]: 40 ± 3%
- inhibition at 25 µM [2]: 19 ± 5%
- IC50 [3, 8]: 9700 nM
- hsMetAP-I % inhibition [4]: Inactive

Compound: COc1ccc(Cn2nnc3c2[C@]2(CC[C@H]3OC(=O)c3ccccc3)CO2)cc1 (racemic) [UWU-II-023-A]
- inhibitory effect on MetAP-II (in words) [1]: good inhibitory effect
- IC50 [1, 9]: 600 ± 10 nM
- inhibition at 25 µM [1, 10]: 98.6 ± 0.4%
- E. Coli % inhibition [2]: Inactive
- IC50 ([3]; Homo sapiens, HUVEC, 240 h, read-out: HUVEC IC50, growth over 10 days, 0-100 µM, OD at 595 nm): 2400 nM
- hsMetAP-I % inhibition [4]: Inactive

Compound: O=C1CCC2(CO2)c2c1nnn2Cc1ccc(C(F)(F)F)cc1 (stereo not shown) [BK-I-161-A]
- inhibitory effect on MetAP-II (in words) [1]: good inhibitory effect
- IC50 [1, 6]: 520 ± 50 nM
- inhibition at 25 µM [1, 7]: 100%
- E. Coli % inhibition [2]: Inactive
- IC50 [3, 8]: 900 nM
- hsMetAP-I % inhibition [4]: Inactive

Compound: COc1ccc(Cn2nnc3c2C2(CCC3OC(=O)NCC(N)=O)CO2)cc1 (stereo not shown) [UWU-XII-143-A]
- IC50 [1, 9]: 230 ± 20 nM
- inhibition at 25 µM [1, 10]: 100%
- inhibition at 25 µM [2]: 12 ± 1%
- IC50 [3, 8]: 2600 nM
- hsMetAP-I % inhibition [4]: Inactive

Compound: CO[C@@H]1[C@H](OC(=O)NC(=O)CCl)CC[C@]2(CO2)[C@H]1[C@@]1(C)O[C@@H]1CC=C(C)C [TNP-470]
- plasma half-life [5]: ~ 2 min

Compound: CC(C)NC(=O)O[C@@H]1CC[C@]2(CO2)c2c1nnn2Cc1ccccc1 (racemic) [UWU-XII-128-A]
- inhibitory effect on MetAP-II (in words) [1]: good inhibitory effect
- IC50 [1, 9]: 420 ± 70 nM
- inhibition at 25 µM [1, 10]: 100%
- inhibition at 25 µM [2]: 24 ± 2%
- IC50 [3, 8]: 1200 nM
- hsMetAP-I % inhibition [4]: Inactive

Compound: COc1ccc(Cn2nnc3c2C2(CCC3OC(=O)Nc3ccccc3)CO2)cc1 (racemic) [UWU-XII-149-A]
- IC50 [1, 9]: 990 ± 50 nM
- hsMetAP-II % inhibition [1, 11]: 100%
- E. Coli % inhibition [2]: Inactive
- IC50 [3, 12]: 3200 nM
- hsMetAP-I % inhibition [4]: Inactive

Compound: O=C1CCC2(CO2)c2c1nnn2Cc1ccc(Cl)cc1 (stereo not shown) [BK-I-184-A]
- IC50 [1, 6]: 740 ± 30 nM
- inhibition at 25 µM [1, 7]: 100%
- inhibition at 25 µM [2]: 14 ± 5%
- IC50 [3, 8]: 7400 nM
- hsMetAP-I % inhibition [4]: Inactive

Compound: COc1ccc(Cn2nnc3c2C2(CCC3OC(=O)NCC(C)C)CO2)cc1 (racemic) [UWU-XII-142-A]
- IC50 [1]: 150 ± 30 nM
- inhibition at 25 µM [1, 10]: 100%
- inhibition at 25 µM [2]: 18.7 ± 0.8%
- IC50 [3, 8]: 2400 nM
- hsMetAP-I % inhibition [4]: Inactive

Compound: O=C1CCC2(CO2)c2c1nnn2Cc1ccc(F)cc1 (stereo not shown) [BK-I-178-A]
- IC50 [1, 6]: 870 ± 90 nM
- inhibition at 25 µM [1, 7]: 100%
- inhibition at 25 µM [2]: 13 ± 5%
- IC50 [3, 8]: 3200 nM
- hsMetAP-I % inhibition [4]: Inactive

Compound: COc1ccc(Cn2nnc3c2[C@@]2(CC[C@H]3OC(=O)NC(C)C)CO2)cc1 (racemic) [UWU-XII-131-C]
- E. Coli % inhibition [2]: Inactive
- IC50 [3, 8]: 2500 nM
- hsMetAP-I % inhibition [4]: Inactive

Compound: COc1ccc(Cn2nnc3c2[C@@]2(CC[C@H]3OC(=O)c3ccccc3)CO2)cc1 (racemic) [UWU-XII-023-D]
- IC50 [1, 9]: 17000 ± 12000 nM
- inhibition at 25 µM [1, 10]: 45 ± 4%
- E. Coli % inhibition [2]: Inactive
- IC50 [3, 8]: 2100 nM
- hsMetAP-I % inhibition [4]: Inactive
